Results taken from patent publication US12077503B2, “Substituted cyclic amides and their use as herbicides” (FMC CORPORATION, priority 2015, dated 2024).

Tests used:
Assay type in all cases: in vivo
[1] = system: Galium (catchweed bedstraw, Galium aparine); assay: Test A postemergence; details: postemergence; for Galium plant response rating: 125 g ai/ha, visual injury rating on 0 to 100 scale (0 no effect, 100 complete control), approx. 10 d; for Plant response rating, Galium: 500 g ai/ha, 0 to 100 scale, 0 no effect, 100 complete control
Method in brief: (§1)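 Seeded soil received test chemicals as a preemergence directed spray, and seedlings at one to two leaves, 2–10 cm tall, received them postemergence, in a non-phytotoxic, surfactant-containing solvent mixture. Pots were held in a greenhouse for approximately 10 d, then rated for injury from 0, no effect, to 100, complete control.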

[2] = system: ryegrass, Italian (Italian ryegrass, Lolium multiflorum); assay: Test A postemergence; details: postemergence; for Ryegrass, Italian plant response rating: 125 g ai/ha, visual injury rating on 0 to 100 scale (0 no effect, 100 complete control), approx. 10 d; for Plant response rating, Ryegrass, Italian: 500 g ai/ha, 0 to 100 scale, 0 no effect, 100 complete control
Method in brief: as §1

[3] = system: ragweed (common ragweed, Ambrosia elatior); assay: Test A postemergence; details: postemergence; for Ragweed plant response rating: 125 g ai/ha, visual injury rating on 0 to 100 scale (0 no effect, 100 complete control), approx. 10 d; for Plant response rating, Ragweed: 500 g ai/ha, 0 to 100 scale, 0 no effect, 100 complete control
Method in brief: as §1

[4] = system: Kochia (Kochia scoparia); assay: Test A postemergence; details: postemergence; for Kochia plant response rating: 125 g ai/ha, visual injury rating on 0 to 100 scale (0 no effect, 100 complete control), approx. 10 d; for Plant response rating, Kochia: 500 g ai/ha, 0 to 100 scale, 0 no effect, 100 complete control
Method in brief: as §1

[5] = system: pigweed (Amaranthus retroflexus); assay: Test A postemergence; details: postemergence; for Pigweed plant response rating: 125 g ai/ha, visual injury rating on 0 to 100 scale (0 no effect, 100 complete control), approx. 10 d; for Plant response rating, Pigweed: 500 g ai/ha, 0 to 100 scale, 0 no effect, 100 complete control
Method in brief: as §1

[6] = system: giant foxtail (Setaria faberii); assay: Test A postemergence; details: postemergence; for Foxtail, Giant plant response rating: 125 g ai/ha, visual injury rating on 0 to 100 scale (0 no effect, 100 complete control), approx. 10 d; for Plant response rating, Foxtail, Giant: 500 g ai/ha, 0 to 100 scale, 0 no effect, 100 complete control
Method in brief: as §1

[7] = system: corn (Zea mays); assay: Test A postemergence; details: postemergence; for Corn plant response rating: 125 g ai/ha, visual injury rating on 0 to 100 scale (0 no effect, 100 complete control), approx. 10 d; for Plant response rating, Corn: 500 g ai/ha, 0 to 100 scale, 0 no effect, 100 complete control
Method in brief: as §1

[8] = system: blackgrass (Alopecurus myosuroides); assay: Test A postemergence; details: postemergence; for Blackgrass plant response rating: 125 g ai/ha, visual injury rating on 0 to 100 scale (0 no effect, 100 complete control), approx. 10 d; for Plant response rating, Blackgrass: 500 g ai/ha, 0 to 100 scale, 0 no effect, 100 complete control
Method in brief: as §1

[9] = system: barnyardgrass (Echinochloa crus-galli); assay: Test A postemergence; details: postemergence; for Barnyardgrass plant response rating: 125 g ai/ha, visual injury rating on 0 to 100 scale (0 no effect, 100 complete control), approx. 10 d; for Plant response rating, Barnyardgrass: 500 g ai/ha, 0 to 100 scale, 0 no effect, 100 complete control
Method in brief: as §1

[10] = system: wheat (Triticum aestivum); assay: Test A postemergence; details: postemergence; for Wheat plant response rating: 125 g ai/ha, visual injury rating on 0 to 100 scale (0 no effect, 100 complete control), approx. 10 d; for Plant response rating, Wheat: 500 g ai/ha, 0 to 100 scale, 0 no effect, 100 complete control
Method in brief: as §1

[11] = system: ryegrass, Italian (Italian ryegrass, Lolium multiflorum); assay: Test A preemergence; details: for Plant response rating, Ryegrass, Italian: 125 g ai/ha, preemergence, 0 to 100 scale (0 no effect, 100 complete control); for Ryegrass, Italian plant response rating (0 to 100 scale, 0 is no effect, 100 is complete control): Preemergence, 500 g ai/ha, visual injury approx. 10 d
Method in brief: as §1

[12] = system: ragweed (common ragweed, Ambrosia elatior); assay: Test A preemergence; details: for Plant response rating, Ragweed: 125 g ai/ha, preemergence, 0 to 100 scale (0 no effect, 100 complete control); for Ragweed plant response rating (0 to 100 scale, 0 is no effect, 100 is complete control): Preemergence, 500 g ai/ha, visual injury approx. 10 d
Method in brief: as §1

[13] = system: Kochia (Kochia scoparia); assay: Test A preemergence; details: for Plant response rating, Kochia: 125 g ai/ha, preemergence, 0 to 100 scale (0 no effect, 100 complete control); for Kochia plant response rating (0 to 100 scale, 0 is no effect, 100 is complete control): Preemergence, 500 g ai/ha, visual injury approx. 10 d
Method in brief: as §1

[14] = system: pigweed (Amaranthus retroflexus); assay: Test A preemergence; details: for Plant response rating, Pigweed: 125 g ai/ha, preemergence, 0 to 100 scale (0 no effect, 100 complete control); for Pigweed plant response rating (0 to 100 scale, 0 is no effect, 100 is complete control): Preemergence, 500 g ai/ha, visual injury approx. 10 d
[15] = system: giant foxtail (Setaria faberii); assay: Test A preemergence; details: for Plant response rating, Foxtail, Giant: 125 g ai/ha, preemergence, 0 to 100 scale (0 no effect, 100 complete control); for Foxtail, Giant plant response rating (0 to 100 scale, 0 is no effect, 100 is complete control): Preemergence, 500 g ai/ha, visual injury approx. 10 d
Method in brief: as §1

[16] = system: barnyardgrass (Echinochloa crus-galli); assay: Test A preemergence; details: for Plant response rating, Barnyardgrass: 125 g ai/ha, preemergence, 0 to 100 scale (0 no effect, 100 complete control); for Barnyardgrass plant response rating (0 to 100 scale, 0 is no effect, 100 is complete control): Preemergence, 500 g ai/ha, visual injury approx. 10 d
Method in brief: as §1

[17] = system: sedge, umbrella (small-flower umbrella sedge, Cyperus difformis); assay: Test B flooded paddy test; details: Flood, 250 g ai/ha; 0 to 100 scale where 0 is no effect and 100 is complete control; 13 to 15 d
Method in brief: (§2)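 Evaluation by eye, against controls, occurred 13–15 d post-treatment in a greenhouse, using a 0 (no effect) to 100 (complete control) scale. Application was into the paddy water, 3 cm deep over the soil, on 2-leaf plants.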

[18] = system: rice (Oryra sativa); assay: Test B flooded paddy test; details: Flood, 250 g ai/ha; 0 to 100 scale where 0 is no effect and 100 is complete control; 13 to 15 d
Method in brief: as §2

[19] = system: barnyardgrass (Echinochloa crus-galli); assay: Test B flooded paddy test; details: Flood, 250 g ai/ha; 0 to 100 scale where 0 is no effect and 100 is complete control; 13 to 15 d
Method in brief: as §2

[20] = system: ducksalad (Heteranthera limosa); assay: Test B flooded paddy test; details: Flood, 250 g ai/ha; 0 to 100 scale where 0 is no effect and 100 is complete control; 13 to 15 d
Method in brief: as §2

Row | SMILES | Galium plant response rating [1] | Plant response rating, Galium [1] | Ryegrass, Italian plant response rating [2] | Plant response rating, Ryegrass, Italian [2] | Ragweed plant response rating [3] | Plant response rating, Ragweed [3] | Kochia plant response rating [4] | Plant response rating, Kochia [4] | Pigweed plant response rating [5] | Plant response rating, Pigweed [5] | Foxtail, Giant plant response rating [6] | Plant response rating, Foxtail, Giant [6] | Corn plant response rating [7] | Plant response rating, Corn [7] | Blackgrass plant response rating [8] | Plant response rating, Blackgrass [8] | Barnyardgrass plant response rating [9] | Plant response rating, Barnyardgrass [9] | Wheat plant response rating [10] | Plant response rating, Wheat [10] | further results
1 | CN1CC(c2ccc(Cl)cc2)C(C(=O)Nc2ccccc2S(C)(=O)=O)C1=O (stereo not drawn) [Compound 435] | 50 | 60 | 40 | 40 | 40 | 60 | 20 | 50 | 20 | 50 | 80 | 80 | 0 | 20 | 30 | 50 | 80 | 90 | 0 | 60 | Plant response rating, Ryegrass, Italian [11]: 0; Ryegrass, Italian plant response rating (0 to 100 scale, 0 is no effect, 100 is complete control) [11]: 20; Plant response rating, Ragweed [12]: 20; Ragweed plant response rating (0 to 100 scale, 0 is no effect, 100 is complete control) [12]: 70; Plant response rating, Kochia [13]: 60; Kochia plant response rating (0 to 100 scale, 0 is no effect, 100 is complete control) [13]: 80; Plant response rating, Pigweed [14]: 60; Pigweed plant response rating (0 to 100 scale, 0 is no effect, 100 is complete control) [14]: 80; Plant response rating, Foxtail, Giant [15]: 90; Foxtail, Giant plant response rating (0 to 100 scale, 0 is no effect, 100 is complete control) [15]: 90; Plant response rating, Barnyardgrass [16]: 80; Barnyardgrass plant response rating (0 to 100 scale, 0 is no effect, 100 is complete control) [16]: 90; Plant response rating, Sedge, Umbrella [17]: 0; Plant response rating, Rice [18]: 0; Plant response rating, Barnyardgrass [19]: 60; Plant response rating, Ducksalad [20]: 90
2 | CN1CC(c2ccc(Cl)cc2)C(C(=O)Nc2ccc(F)cc2F)C1=O (stereo not drawn) [Compound 436] | 60 | 60 | 20 | 50 | 0 | 20 | 40 | 70 | 20 | 60 | 80 | 90 | 0 | 40 | 30 | 40 | 90 | 90 | 20 | 40 | Plant response rating, Ryegrass, Italian [11]: 40; Ryegrass, Italian plant response rating (0 to 100 scale, 0 is no effect, 100 is complete control) [11]: 60; Plant response rating, Ragweed [12]: 0; Ragweed plant response rating (0 to 100 scale, 0 is no effect, 100 is complete control) [12]: 50; Plant response rating, Kochia [13]: 70; Kochia plant response rating (0 to 100 scale, 0 is no effect, 100 is complete control) [13]: 80; Plant response rating, Pigweed [14]: 80; Pigweed plant response rating (0 to 100 scale, 0 is no effect, 100 is complete control) [14]: 90; Plant response rating, Foxtail, Giant [15]: 90; Foxtail, Giant plant response rating (0 to 100 scale, 0 is no effect, 100 is complete control) [15]: 100; Plant response rating, Barnyardgrass [16]: 90; Barnyardgrass plant response rating (0 to 100 scale, 0 is no effect, 100 is complete control) [16]: 100; Plant response rating, Sedge, Umbrella [17]: 0; Plant response rating, Rice [18]: 0; Plant response rating, Barnyardgrass [19]: 60; Plant response rating, Ducksalad [20]: 100
3 | CN1CC(c2ccc(F)cc2)C(C(=O)Nc2ccccc2F)C1=O (stereo not drawn) [Compound 437] | 30 | 50 | 0 | 20 | 0 | 0 | 20 | 30 | 0 | 20 | 90 | 90 | 0 | 20 | 0 | 30 | 90 | 90 | 0 | 40 | Plant response rating, Ryegrass, Italian [11]: 0; Ryegrass, Italian plant response rating (0 to 100 scale, 0 is no effect, 100 is complete control) [11]: 50; Plant response rating, Ragweed [12]: 0; Ragweed plant response rating (0 to 100 scale, 0 is no effect, 100 is complete control) [12]: 60; Plant response rating, Kochia [13]: 60; Kochia plant response rating (0 to 100 scale, 0 is no effect, 100 is complete control) [13]: 70; Plant response rating, Pigweed [14]: 20; Pigweed plant response rating (0 to 100 scale, 0 is no effect, 100 is complete control) [14]: 80; Plant response rating, Foxtail, Giant [15]: 90; Foxtail, Giant plant response rating (0 to 100 scale, 0 is no effect, 100 is complete control) [15]: 100; Plant response rating, Barnyardgrass [16]: 90; Barnyardgrass plant response rating (0 to 100 scale, 0 is no effect, 100 is complete control) [16]: 90; Plant response rating, Sedge, Umbrella [17]: 0; Plant response rating, Rice [18]: 0; Plant response rating, Barnyardgrass [19]: 65; Plant response rating, Ducksalad [20]: 100
